{
  "source": "patent US20170165253A1",
  "about": "“TREATMENT OF SEXUAL DYSFUNCTION AND FOR IMPROVED SEXUAL QUALITY OF LIFE” (ReJoy, priority 2015, published 2017)",
  "key": {"nipple areole complex [1]": {"tested_on": "nipple areole complex", "test": "Pilot dose study of nipple erection and sensitivity, topical phenylephrine (Example 3)", "format": "in vivo, human", "settings": "10% topical solution", "experimental": "A pilot study was conducted to assess the dosage of topical phenylephrine solution required to elicit nipple erection and sensitivity. […] Two subjects were post-menopausal and the reminder three were pre-menopausal. Subjects were not hypertensive, pregnant or breastfeeding. Three formulations were used: Formula A: 0% topical phenylephrine hydrochloride solution; Formula B: 5% topical phenylephrine hydrochloride solution; Formula C: 10% topical phenylephrine hydrochloride solution.\nThe study was conducted over 3 days. On day 1, subjects were instructed to apply on the left nipple Formula A and on the right nipple Formula B. On day 2, subjects were instructed to apply on the left nipple Formula A and on the right nipple Formula C. On day 3, subjects were instructed to apply on the left nipple Formula B and on the right nipple Formula C. 0.1 mL of each formula was applied with a cotton swab to the nipple areole complex. […] With the 10% topical phenylephrine solution, response in nipple erection and sensitivity was obtained in less than 30 minutes and lasted for 3-4 hours."}, "nipple-areola complex": {"tested_on": "nipple-areola complex", "test": "Phenylephrine FSFI orgasm domain study (Example 8)", "format": "in vivo, human", "experimental": "Phenylephrine HCl 15%. A study was conducted to evaluate the effect of Phenylephrine HCl 15% on the FSFI orgasm domain. Three premenopausal subjects participated in the study. Subjects were not hypertensive, pregnant or breastfeeding."}, "nipple areola complex [2]": {"tested_on": "nipple areola complex", "test": "Restoration of nipple sensitivity post breast surgery, case study (Example 11)", "format": "in vivo, human", "settings": "Likert scale (1-10), 45 minutes after 10% solution, single patients; Hydrochloride", "experimental": "A case study was conducted to assess the efficacy of a topical phenylephrine solution in increasing nipple sensitivity in patients that reported a loss in nipple sensitivity post breast surgery. Five subjects ages 36-65 participated in the study. Subjects were asked to rate their nipple sensitivity on a Likert scale (1-10) before surgery and currently (i.e., after surgery). Next, patients were asked to apply a 10% phenylephrine solution to each nipple areola complex. 45 minutes after application of the drug, patients were asked again to rate their nipple sensitivity on a Likert scale (1-10)."}, "nipple areola complex [3]": {"tested_on": "nipple areola complex", "test": "Blinded study of 10%, 15%, 20% phenylephrine on the NAC: erection, sensitivity, lubrication, arousal (Example 12)", "format": "in vivo, human", "settings": "for Arousal / Lubrication: 60 minutes, change from baseline; for Responders, Arousal / Responders, Lubrication: 20 patients; for Erection: 1 = erection reported", "experimental": "20 healthy, pre-menopausal females were recruited to the study. Subjects were instructed to apply either 4 or 6 drops of an investigational drug to each nipple areola complex. Baseline blood-pressure, heart rate, nipple erection, nipple sensitivity, genital lubrication and arousal were measured and recorded. 30 minutes later, blood pressure and heart rate were measured and recorded. 60 minutes later, blood-pressure, heart rate, nipple erection, nipple sensitivity, genital lubrication and arousal were measured and recorded.\nDuring the study, four parameters of efficacy were measured: nipple erection, nipple sensitivity, genital lubrication, and arousal. Efficacy parameters were all patient reported outcomes measured at 0 and 60 minutes after the application of the investigational drug. Nipple erection was determined by asking the patient if they had experienced nipple erection during the 60 minutes after the application of the investigational drug. Nipple sensitivity was measured with a Likert scale of 1-10 (1 being “insensitive”, 10 being “extremely sensitive/bordering on pain”) at 0 and 60 minutes after the application of the investigational drug. Genital lubrication was measured with a Likert scale of 1-10 (1 being “none”, 10 being “excellent”) at 0 and 60 minutes after the application of the investigational drug. Arousal was measured with a Likert scale of 1-10 (1 being “none”, 10 being “extremely aroused”) at 0 and 60 minutes after the application of the investigational drug.\nAfter a 48-hour washout period, subjects repeated the procedure using 4 or 6 drops of a new arm of the study. The subjects and the investigator were blinded to the drug assignment in each arm. In total 6 arms were tested:\nNipple erection data was scored “1” for a positive response to the question “Did you experience nipple erection after applying the solution?” It was scored “0” otherwise. Sensitivity data was tabulated by subtracting the patient reported nipple sensitivity at 60 minutes from the reported value at baseline. Subjects were asked to rate their level of nipple sensitivity on a scale of 1-10 (1 being “non-sensitive” and 10 being “extremely sensitive, bordering on pain.”) Subjects reporting a sensitivity increase greater than 2 after the application of each investigational drug were considered sensitivity responders.\nGenital lubrication was measured with a Likert scale of 1-10 (1 being “none” and 10 being “excellent”) at 0 and 60 minutes after the application of the investigational drug. Arousal was measured with a Likert scale of 1-10 (1 being “none” and 10 being “extremely aroused”) at 0 and 60 minutes after the application of the investigational drug. […] A subject was considered a responder for genital lubrication if they reported a change in genital lubrication of 2 or more.\nA subject was considered a responder for arousal if they reported a change in arousal of 2 or more."}, "nipple areole complex [4]": {"tested_on": "nipple areole complex", "test": "Pilot study in female sexual dysfunction, SSE by Sexual Activity Record (Example 4)"}, "[5]": {"settings": "Phenylephrine HCl 15%, single subjects, Hydrochloride"}, "[6]": {"settings": "10% (Arm C), change of 2 or more"}, "[7]": {"settings": "15% (Arm D), single patients, Hydrochloride"}, "[8]": {"settings": "20% (Arm B), single patients, Hydrochloride"}},
  "note": "Where “and” joins values, the source holds several entries; their conditions need not be identical. Equal values may be shown once. Where a name gives a salt, the structure may show the parent alone.",
  "data": [
    {"smiles": "CNC[C@H](O)c1cccc(O)c1", "note": "[Phenylephrine HCl, Phenylephrine Hydrochloride]", "values": [
      {"measurement": "duration of response in nipple erection and sensitivity", "setting": "nipple areole complex [1]", "value": "3 to 4", "unit": "h"},
      {"measurement": "time to response in nipple erection and sensitivity", "setting": "nipple areole complex [1]", "value": "less than 30 minutes"},
      {"measurement": "adverse events", "setting": "nipple-areola complex; 15%", "value": "No adverse events were reported"},
      {"measurement": "subjects with increased sensitivity and nipple erection", "setting": "nipple-areola complex; 15%, subjects without response to 10%", "value": "3 of 5"},
      {"measurement": "FSFI Scale How Difficult to Reach Orgasm, Intervention", "setting": "nipple-areola complex; [5]", "value": "5 (2×) and 4"},
      {"measurement": "FSFI Scale How Often Orgasm was Reached, Intervention", "setting": "nipple-areola complex; [5]", "value": "5 and 4 (2×)"},
      {"measurement": "nipple sensitivity past application", "setting": "nipple-areola complex; report", "value": "≤ 12", "unit": "h"},
      {"measurement": "Nipple Sensitivity, Post-Surgery + Drug", "setting": "nipple areola complex [2]", "value": "6 (2×) and 1 and 8 (2×)"},
      {"measurement": "Percent responders, Arousal", "setting": "nipple areola complex [3]; 10% (Arm C)", "value": 0, "unit": "%"},
      {"measurement": "Percent responders, Lubrication", "setting": "nipple areola complex [3]; 10% (Arm C)", "value": 5, "unit": "%"},
      {"measurement": "Arousal", "setting": "nipple areola complex [3]; 10% (Arm C), Likert 1-10, single patients", "value": 0},
      {"measurement": "Lubrication", "setting": "nipple areola complex [3]; 10% (Arm C), Likert 1-10, single patients, Hydrochloride", "value": "0 (17×) and 1 (2×) and 2"},
      {"measurement": "Responders, Arousal", "setting": "nipple areola complex [3]; [6]", "value": 0},
      {"measurement": "Responders, Lubrication", "setting": "nipple areola complex [3]; [6]", "value": 1},
      {"measurement": "% Responders, Erection", "setting": "nipple areola complex [3]; 10%, four drops", "value": 37, "unit": "%"},
      {"measurement": "% Responders, Sensitivity", "setting": "nipple areola complex [3]; 10%, four drops", "value": 16, "unit": "%"},
      {"measurement": "Erection", "setting": "nipple areola complex [3]; 10%, four drops (0.114 mL) per NAC, 0 otherwise, single patients, listed as PE, Hydrochloride", "value": "0 (11×) and 1 (8×)"},
      {"measurement": "Responders, Erection", "setting": "nipple areola complex [3]; 10%, four drops, 19 patients", "value": 7},
      {"measurement": "Responders, Sensitivity", "setting": "nipple areola complex [3]; 10%, four drops, 19 patients", "value": 3},
      {"measurement": "Sensitivity", "setting": "nipple areola complex [3]; 10%, four drops, change baseline to 60 minutes, scale 1-10, single patients, listed as PE, Hydrochloride", "value": "1 (7×) and 0 (9×) and 5 and 2 (2×)"},
      {"measurement": "% Responders, Erection", "setting": "nipple areola complex [3]; 10%, six drops", "value": 50, "unit": "%"},
      {"measurement": "% Responders, Sensitivity", "setting": "nipple areola complex [3]; 10%, six drops", "value": 44, "unit": "%"},
      {"measurement": "Erection", "setting": "nipple areola complex [3]; 10%, six drops (0.170 mL) per NAC, single patients, listed as PE, Hydrochloride", "value": "1 (8×) and 0 (8×)"},
      {"measurement": "Responders, Erection", "setting": "nipple areola complex [3]; 10%, six drops, 16 patients", "value": 8},
      {"measurement": "Responders, Sensitivity", "setting": "nipple areola complex [3]; 10%, six drops, 16 patients", "value": 7},
      {"measurement": "Sensitivity", "setting": "nipple areola complex [3]; 10%, six drops, change baseline to 60 minutes, scale 1-10, single patients, listed as PE, Hydrochloride", "value": "4 (2×) and 0 (6×) and 1 (3×) and 3 (2×) and 2 (3×)"},
      {"measurement": "Percent responders, Arousal", "setting": "nipple areola complex [3]; 15% (Arm D)", "value": 0, "unit": "%"},
      {"measurement": "Percent responders, Lubrication", "setting": "nipple areola complex [3]; 15% (Arm D)", "value": 10, "unit": "%"},
      {"measurement": "Responders, Arousal", "setting": "nipple areola complex [3]; 15% (Arm D)", "value": 0},
      {"measurement": "Responders, Lubrication", "setting": "nipple areola complex [3]; 15% (Arm D)", "value": 2},
      {"measurement": "Arousal", "setting": "nipple areola complex [3]; [7]", "value": "0 (19×) and −1"},
      {"measurement": "Lubrication", "setting": "nipple areola complex [3]; [7]", "value": "0 (15×) and 2 and 1 (3×) and 3"},
      {"measurement": "% Responders, Erection", "setting": "nipple areola complex [3]; 15%, four drops", "value": 42, "unit": "%"},
      {"measurement": "% Responders, Sensibility", "setting": "nipple areola complex [3]; 15%, four drops", "value": 53, "unit": "%"},
      {"measurement": "Responders, Erection", "setting": "nipple areola complex [3]; 15%, four drops, 19 patients", "value": 8},
      {"measurement": "Responders, Sensibility", "setting": "nipple areola complex [3]; 15%, four drops, 19 patients", "value": 10},
      {"measurement": "Erection", "setting": "nipple areola complex [3]; 15%, four drops, single patients, listed as PE, Hydrochloride", "value": "0 (11×) and 1 (8×)"},
      {"measurement": "Sensibility", "setting": "nipple areola complex [3]; 15%, four drops, change baseline to 60 minutes, scale 1-10, single patients, listed as PE, Hydrochloride", "value": "0 (7×) and 2 (5×) and 5 and 1 (2×) and 3 (3×) and 9"},
      {"measurement": "Percent responders, Arousal", "setting": "nipple areola complex [3]; 20% (Arm B)", "value": 0, "unit": "%"},
      {"measurement": "Percent responders, Lubrication", "setting": "nipple areola complex [3]; 20% (Arm B)", "value": 20, "unit": "%"},
      {"measurement": "Responders, Arousal", "setting": "nipple areola complex [3]; 20% (Arm B)", "value": 0},
      {"measurement": "Responders, Lubrication", "setting": "nipple areola complex [3]; 20% (Arm B)", "value": 4},
      {"measurement": "Arousal", "setting": "nipple areola complex [3]; [8]", "value": "0 (19×) and 1"},
      {"measurement": "Lubrication", "setting": "nipple areola complex [3]; [8]", "value": "0 (15×) and 2 (3×) and 1 and 3"},
      {"measurement": "% Responders, Erection", "setting": "nipple areola complex [3]; 20%, four drops", "value": 68, "unit": "%"},
      {"measurement": "% Responders, Sensitivity", "setting": "nipple areola complex [3]; 20%, four drops", "value": 42, "unit": "%"},
      {"measurement": "Responders, Erection", "setting": "nipple areola complex [3]; 20%, four drops, 19 patients", "value": 13},
      {"measurement": "Responders, Sensitivity", "setting": "nipple areola complex [3]; 20%, four drops, 19 patients", "value": 8},
      {"measurement": "Erection", "setting": "nipple areola complex [3]; 20%, four drops, single patients, listed as PE, Hydrochloride", "value": "1 (13×) and 0 (6×)"},
      {"measurement": "Sensitivity", "setting": "nipple areola complex [3]; 20%, four drops, change baseline to 60 minutes, scale 1-10, single patients, listed as PE, Hydrochloride", "value": "0 (7×) and 1 (4×) and 2 (5×) and 4 (2×) and 9"},
      {"measurement": "Number of SSE (1 week)", "setting": "nipple areole complex [4]; 0.1 mL 10% solution per NAC about 1 hour before sexual activity, single subjects, Hydrochloride", "value": "2 (2×) and 1 (2×) and 6 and 3 (3×) and 4"},
      {"measurement": "time nipples remained sensitive", "setting": "nipple areole complex [4]; 10% solution", "value": "3 to 4", "unit": "h"},
      {"measurement": "time to increased nipple sensitivity after application", "setting": "nipple areole complex [4]; 10% solution, all subjects", "value": "≤ 30", "unit": "min"},
      {"measurement": "subjects with significant change in number of SSEs from baseline", "setting": "nipple areole complex [4]; nine subjects, one week", "value": "Seven subjects reported significant change in the number of SSEs from baseline"},
      {"measurement": "adverse events", "setting": "nipple areole complex [4]; one subject of nine", "value": "slightly painful nipple erection"},
      {"measurement": "persistence of sensitivity", "setting": "nipple areole complex [4]; one subject with initial slightly painful nipple erection", "value": "approximately 8 hours"},
      {"measurement": "desire (modified FSFI desire domain)", "setting": "nipple areole complex [4]; subjects reporting increase in number of SSEs", "value": "increased desire"}
    ]}
  ]
}
